Results as given in patent US20030096760A1, “Method of antagonizing the human SRC SH2 domain” (SmithKlineBeecham Corporation, priority 1997, published 2003).
pIC50: −log10 of the molar value. *1 amine or outer side, *2 acyl side, *3 side chain or, on linkers, in order; H or OH if unused. Where a SMILES comes first, the peptide text is derived from it. [ ]: non-standard residue; d: D form. X1 = O=C1OC(O)c2cc(C[C@H](N[*:1])C(=O)[*:2])ccc21

Biological target: T1, human src SH2 domain (Homo sapiens, UniProt P12931)
T1 construct: made in house; host or cells: E. coli strain AR120 (vector pEA1KnRBS3)
T1 sequence (P12931 151-248 limits assumed): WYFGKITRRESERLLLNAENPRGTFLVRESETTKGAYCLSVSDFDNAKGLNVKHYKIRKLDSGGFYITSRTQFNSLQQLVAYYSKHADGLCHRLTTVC
Experiment: ELISA-based binding assay of human src SH2 domain fusion protein and biotinylated pY peptide
Conditions: DET1-DET2-spacer-ek-src SH2 fusion protein; 0.1 uM biotinylated pY peptide; 3 hr at 4° C.; read-out: Activity at cloned human Src SH2 domain (IC50)
Description: The inhibitory activity of compounds at the human src SH2 domain was determined in vitro using the human src SH2 domain expressed as fusion proteins in E. coli.
The fusion protein containing the human SH2 domain was expressed as the general sequence: DET1-DET2-spacer-ek-SH2, where DET1, DET2, spacer, ek and SH2 are as described below. DET1 (“defined epitope tag 1”) (SEQ ID NO: 1) is an 11 amino acid sequence found in the Human Immunodeficiency Virus Type 1 (HIV-1) envelope protein gp120 (or gp160). Monoclonal antibodies to various epitopes of HIV-1 gp120 (or gp160) are known in the art, see, for example U.S. Pat. No. 5,166,050. One preferred example is monoclonal antibody 178.1 (see, e.g., Thiriart et al., J. Immunol., 143:1832-1836 (1989)), which was prepared by immunization of mice with a yeast-expressed HIV-1 gp160 molecule from strain BH10 (Ratner et al., Nature, 313:277-284 (1985)). This tag was used for detection of expression (by Western blot), for purification of the protein (by affinity chromatography), and for configuring assays in which the fusion protein was captured or immobilized using the 178.1 antibody. DET2 is a hexa-histidine sequence tag (SEQ ID NO: 2) which binds to nickel-containing resins and was used for purification purposes. Spacer (SEQ ID NO: 3) was utilized to design a BamH1 restriction site at the indicated position of the construct. […]

SMILES: CC[C@H](C)[C@H](NC(=O)[C@H](CCC(=O)O)NC(=O)[C@H](CCC(=O)O)NC(=O)[C@H](Cc1ccc2c(c1)C(O)OC2=O)NC(C)=O)C(=O)N[C@@H](CCC(=O)O)C(N)=O (stereo partly drawn) [Compound 1, (S)-alpha-(acetylamino)-1,3-dihydro-3-hydroxy-1-oxo-5-isobenzofuranpropanamido-glutamate-glutamate-isoleucine-glutamate-amine] (Ac-[X1]EEIE-NH2)
- pIC50: 6.60
